In ChEMBL document CHEMBL1201862, “PubChem BioAssay data set” (2004):
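Grown in 96-well plates, cells were treated for 48 hours with each compound at five concentrations. Insufficient inhibition: endpoint recorded as highest concentration tested. GI50 is the concentration that inhibits growth by half.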 Activity calls are given as the source filed them. Cut-off read from the data, not from the text of the source: active = GI50 up to about 1.1 µM and inactive = higher.

Experiments:
Test in all cases: growth of human tumour cells (NCI), 48 h
[1] = tested on: 786-0
[2] = tested on: BT-549
[3] = tested on: CAKI-1
[4] = tested on: COLO 205
[5] = tested on: HCT-116
[6] = tested on: HOP-62
[7] = tested on: IGROV-1
[8] = tested on: MCF7
[9] = tested on: MOLT-4
[10] = tested on: NCI-H226
[11] = tested on: NCI-H460
[12] = tested on: NCI/ADR-RES
[13] = tested on: OVCAR-4
[14] = tested on: OVCAR-8
[15] = tested on: SF-268
[16] = tested on: SNB-19
[17] = tested on: SR
[18] = tested on: SW-620
[19] = tested on: U-251
[20] = tested on: UACC-257

| Compound | GI50 [1] | GI50 [2] | GI50 [3] | GI50 [4] | GI50 [5] | GI50 [6] | GI50 [7] | GI50 [8] | GI50 [9] | GI50 [10] | GI50 [11] | GI50 [12] | GI50 [13] | GI50 [14] | GI50 [15] | GI50 [16] | GI50 [17] | GI50 [18] | GI50 [19] | GI50 [20] |
| --- | --- | --- | --- | --- | --- | --- | --- | --- | --- | --- | --- | --- | --- | --- | --- | --- | --- | --- | --- | --- |
| O=C1Nc2ccccc2/C1=N/NS(=O)(=O)c1ccc(C(=O)O)cc1 | > 100 µM (inactive) | > 100 µM (inactive) | > 100 µM (inactive) | > 100 µM (inactive) | > 100 µM (inactive) | > 100 µM (inactive) | > 100 µM (inactive) | > 100 µM (inactive) | > 100 µM (inactive) | > 100 µM (inactive) | > 100 µM (inactive) | > 100 µM (inactive) | > 100 µM (inactive) | > 100 µM (inactive) | > 100 µM (inactive) | > 100 µM (inactive) | > 100 µM (inactive) | > 100 µM (inactive) | > 100 µM (inactive) | > 100 µM (inactive) |
| CNC(=O)CNC(=O)C(Cc1ccc(NC(=O)CCCCC(C)=O)cc1)NC(=O)C(CCC(=O)OCc1ccccc1)NC(=O)OC(C)(C)C (configuration not stated) | > 100 µM (inactive) | > 100 µM (inactive) | > 100 µM (inactive) | > 100 µM (inactive) | > 100 µM (inactive) | > 100 µM (inactive) | > 100 µM (inactive) | > 100 µM (inactive) | > 100 µM (inactive) | > 100 µM (inactive) | > 100 µM (inactive) | > 100 µM (inactive) | > 100 µM (inactive) | > 100 µM (inactive) | > 100 µM (inactive) | > 100 µM (inactive) | > 100 µM (inactive) | > 100 µM (inactive) | > 100 µM (inactive) |  |
| O=C1c2c(ccc3c2CCC3)CC1Cc1ccc2c(c1)CCC2 (configuration not stated) | 32.3 µM (inactive) | 51.6 µM (inactive) |  | 20.3 µM (inactive) | 6.55 µM (inactive) | 28.1 µM (inactive) | 28.6 µM (inactive) | 22.6 µM (inactive) | 13.1 µM (inactive) | 28.2 µM (inactive) | 33.8 µM (inactive) | 28.2 µM (inactive) | 27.5 µM (inactive) | 36.3 µM (inactive) | 33.7 µM (inactive) | 48.5 µM (inactive) | 5.27 µM (inactive) | 17.1 µM (inactive) | 24.2 µM (inactive) | 18.5 µM (inactive) |
| Fc1ccc(OCc2ccc3nc(-c4ccccc4)c(Cl)nc3c2)cc1 | 16.9 µM (inactive) | 31.1 µM (inactive) | 22.1 µM (inactive) | 37.1 µM (inactive) | 31.6 µM (inactive) | 16.3 µM (inactive) | 25.1 µM (inactive) | 53.1 µM (inactive) | 21.6 µM (inactive) |  | 30.1 µM (inactive) | 34.1 µM (inactive) | 39.5 µM (inactive) | 36.4 µM (inactive) | 26 µM (inactive) | > 10 µM (inactive) | 16.1 µM (inactive) | 77.3 µM (inactive) | 16.8 µM (inactive) | > 100 µM (inactive) |
| COc1ccc(C(=O)Nc2ccc(O)c(=O)cc2)cc1 | 51.1 µM (inactive) | 38.5 µM (inactive) | 36.9 µM (inactive) | 24.2 µM (inactive) | 33.1 µM (inactive) | 80.9 µM (inactive) | 37.9 µM (inactive) | 21.5 µM (inactive) |  | > 100 µM (inactive) | 15.3 µM (inactive) | 42.3 µM (inactive) |  | 30.6 µM (inactive) | 21 µM (inactive) | 36.1 µM (inactive) | 17.5 µM (inactive) | 30.7 µM (inactive) | 38.7 µM (inactive) | 40.6 µM (inactive) |
| O=c1[nH]nc(Cc2ccccc2)n1/N=C\c1ccccc1 | 71.3 µM (inactive) | > 100 µM (inactive) | > 100 µM (inactive) | > 100 µM (inactive) | > 100 µM (inactive) | 56.6 µM (inactive) | 84.7 µM (inactive) | > 100 µM (inactive) | > 100 µM (inactive) | > 100 µM (inactive) | > 100 µM (inactive) | > 100 µM (inactive) | > 100 µM (inactive) | 90.4 µM (inactive) | > 10 µM (inactive) |  | > 100 µM (inactive) | > 100 µM (inactive) | 37.1 µM (inactive) | > 100 µM (inactive) |
| N=C(N)NC1C(O)C(O)C(O)C(NC(=N)N)C1O (configuration not stated) | > 100 µM (inactive) | > 100 µM (inactive) | > 100 µM (inactive) | > 100 µM (inactive) | > 100 µM (inactive) | > 100 µM (inactive) | > 100 µM (inactive) | > 100 µM (inactive) | > 100 µM (inactive) |  | > 100 µM (inactive) | > 100 µM (inactive) | > 100 µM (inactive) | > 100 µM (inactive) | > 100 µM (inactive) | > 100 µM (inactive) | > 100 µM (inactive) | > 100 µM (inactive) | > 100 µM (inactive) | > 100 µM (inactive) |
| CC(C)(C)[C@@H]1NC(=O)CN1C(=O)OCc1ccccc1 | > 100 µM (inactive) | > 100 µM (inactive) |  | > 100 µM (inactive) | > 100 µM (inactive) | > 100 µM (inactive) | > 100 µM (inactive) | > 100 µM (inactive) | > 100 µM (inactive) | > 100 µM (inactive) | > 100 µM (inactive) | > 100 µM (inactive) | > 100 µM (inactive) | > 100 µM (inactive) | > 100 µM (inactive) | > 100 µM (inactive) | > 100 µM (inactive) | > 100 µM (inactive) | > 100 µM (inactive) | > 100 µM (inactive) |
| CC1(C)CN=C(Nc2ccc(F)cc2)S1 | > 100 µM (inactive) | > 100 µM (inactive) | > 100 µM (inactive) | > 100 µM (inactive) | > 100 µM (inactive) | > 100 µM (inactive) | > 100 µM (inactive) | > 100 µM (inactive) | > 100 µM (inactive) | > 100 µM (inactive) |  | > 100 µM (inactive) | > 100 µM (inactive) | > 100 µM (inactive) | > 100 µM (inactive) | > 100 µM (inactive) | > 100 µM (inactive) | > 100 µM (inactive) | > 100 µM (inactive) | > 100 µM (inactive) |
| CN(C)c1nc(N(C)C)nc(N(C)C23CC4CC(CC(C4)C2)C3)n1 | 40.5 µM (inactive) | 27.7 µM (inactive) | > 100 µM (inactive) | 15.1 µM (inactive) | 20.5 µM (inactive) | 24 µM (inactive) | 17.1 µM (inactive) | 37.6 µM (inactive) |  | 32.6 µM (inactive) | 53.1 µM (inactive) | > 100 µM (inactive) | 44.8 µM (inactive) | 32.1 µM (inactive) | 39.5 µM (inactive) | 31.7 µM (inactive) | 39.1 µM (inactive) | 34.4 µM (inactive) | 30.1 µM (inactive) | 34.3 µM (inactive) |
| c1cc2c3c(c1)[C@@H]1O[C@@H]1c1cccc(c1-3)[C@@H]1O[C@H]21 | 20 µM (inactive) | 24 µM (inactive) | 14.8 µM (inactive) | 18.1 µM (inactive) | 15 µM (inactive) | 27.7 µM (inactive) |  | 10.1 µM (inactive) | 35 µM (inactive) | > 100 µM (inactive) |  | 22.4 µM (inactive) | 19.8 µM (inactive) | 17.9 µM (inactive) | 16.3 µM (inactive) | 53.3 µM (inactive) | 49.5 µM (inactive) |  | 16.9 µM (inactive) | 18.2 µM (inactive) |
| S=C(NCCc1ccccn1)c1nc[nH]c1C(=S)NCCc1ccccn1 | 53.3 µM (inactive) | 42.3 µM (inactive) | 57.1 µM (inactive) | 49.7 µM (inactive) | 34 µM (inactive) | 37.1 µM (inactive) | 34.9 µM (inactive) | 36.1 µM (inactive) |  | 46.8 µM (inactive) | 24.1 µM (inactive) | 20.5 µM (inactive) | 33.8 µM (inactive) | 28.4 µM (inactive) | 66.1 µM (inactive) | 60.3 µM (inactive) | 34 µM (inactive) | 32.5 µM (inactive) | 45.5 µM (inactive) | > 100 µM (inactive) |
| CC(C)C(C=O)C(O)(C(F)(F)F)C(F)(F)F (configuration not stated) | > 100 µM (inactive) | > 100 µM (inactive) | > 100 µM (inactive) | > 100 µM (inactive) | > 100 µM (inactive) |  | > 10 µM (inactive) | > 100 µM (inactive) | > 100 µM (inactive) | > 100 µM (inactive) | > 100 µM (inactive) | > 100 µM (inactive) | > 100 µM (inactive) | > 100 µM (inactive) |  | > 100 µM (inactive) | > 100 µM (inactive) | > 100 µM (inactive) | > 100 µM (inactive) | > 100 µM (inactive) |
| Cn1c2c(c3ccccc3c1=O)C(=O)c1ccccc1-2 | 17.9 µM (inactive) | 50.9 µM (inactive) | > 100 µM (inactive) | 20 µM (inactive) | 15.5 µM (inactive) | 18.9 µM (inactive) | > 100 µM (inactive) | 72.9 µM (inactive) | 3.07 µM (inactive) | 63.8 µM (inactive) |  | 51.2 µM (inactive) | 29.9 µM (inactive) | 32.9 µM (inactive) | 51.8 µM (inactive) | 44.2 µM (inactive) | 5.2 µM (inactive) | > 100 µM (inactive) | 35.3 µM (inactive) | > 100 µM (inactive) |
| Cc1cc(C(=C2C=CC(=N)C=C2)c2ccc(N)cc2)ccc1N [FUCHSIN, BASIC] | 1.09 µM (active) | 0.82 µM (active) | 11.9 µM (inactive) | 1.01 µM (active) | 3.36 µM (inactive) | 0.724 µM (active) | 10.7 µM (inactive) | 3.13 µM (inactive) | 5.51 µM (inactive) | 3.19 µM (inactive) | 2.52 µM (inactive) | 11.7 µM (inactive) | 8.43 µM (inactive) | 1.35 µM (inactive) | 0.556 µM (active) | 0.615 µM (active) | 13.3 µM (inactive) | 3.67 µM (inactive) |  | 3.65 µM (inactive) |
